Measured values taken from patent publication US20110269805A1, “METHOD OF TREATING SENSORIMOTOR DISORDERS WITH 4-(1-(2,3-DIMETHYLPHENYL)ETHYL)-1H-IMIDAZOLE-2(3H)-THIONE” (priority 2007, published 2011).
Entries after “also recorded” stand apart in the source; their conditions may differ.

What was measured:
Format in all cases: in vivo
C57B/6 male mice [1] = assay: Amphetamine-induced stereotypy (open field locomotion); details: for AMBULATIONS / FINE MOVEMENTS: 30 μg/kg PO, amphetamine 8 mg/kg; for FINE MOVEMENTS: scored 60 min post-amphetamine
Protocol: C57B/6 male mice were placed in an open field apparatus and allowed to habituate for 15-30 minutes. The compound of the invention (at 30 μg/kg) was administered PO at 0, +15, or +30 minutes relative to amphetamine (8 mg/kg) administration, and locomotor behavior was scored for an additional 60 minutes post-amphetamine. Amphetamine was administered IP. Locomotion was separated into “fine movements” (indicative of stereotypy) and “ambulations” (indicative of hyperactivity). Amphetamine induced stereotypy. […] Locomotion was separated into “fine movements” (indicative of stereotypy) and “ambulations” (indicative of hyperactivity). Prepulse inhibition. Sprague Dawley male rats (˜200 g-300 g) were used (n=8/group). […] Each rat was individually placed in the startle chamber 10 minutes post-phencyclidine or post-amphetamine or post-vehicle. Testing was carried out using the SR-Lab Startle Response system by San Diego Instruments. Each rat was allowed to acclimate for a 5 minute period with a 65-dB background noise continuously present throughout the session. […] A sensor in the chamber recorded the startle responses following all stimuli presented.

Male Sprague-Dawley rats = assay: Pre-pulse inhibition of the startle response (PPI) disrupted by psychostimulants
Protocol: Male Sprague-Dawley rats were treated with Drug 1 (IP) followed 20 minutes later by Drug 2 (IP or SC as indicated in the methods). Ten minutes following administration of Drug 2 (except in the case of apomorphine where animals were immediately tested post-apomorphine), rats were placed in the startle chamber and allowed 5 minutes to acclimate with 65-dB background white noise. The acclimation period was followed by a ˜15 minute test session during which time rats were presented with 40 ms 120 dB startle pulses alone or preceded 100 ms by a pre-pulse 3, 6, or 12 dB above background. These four types of active stimuli were presented in pseudorandom order along with no-stimulation trials to assess baseline activity throughout testing. An average of 20 s separated each trial type. The maximum startle magnitude was measured for every trial type. PPI for each animal was calculated as the percentage startle magnitude to the pre-pulse+pulse or no-stimulation trials relative to the pulse-alone startle magnitude. Amphetamine induced stereotypy. […] Locomotion was separated into “fine movements” (indicative of stereotypy) and “ambulations” (indicative of hyperactivity). Prepulse inhibition. […] Each rat was individually placed in the startle chamber 10 minutes post-phencyclidine or post-amphetamine or post-vehicle. Testing was carried out using the SR-Lab Startle Response system by San Diego Instruments. Each rat was allowed to acclimate for a 5 minute period with a 65-dB background noise continuously present throughout the session. […] A sensor in the chamber recorded the startle responses following all stimuli presented.

C57B/6 male mice [2] = assay: Amphetamine-induced stereotypy (open field locomotion); details: 30 μg/kg PO, time post-amphetamine −15 min, amphetamine 8 mg/kg

## Cc1cccc(C(C)c2c[nH]c(=S)[nH]2)c1C (stereo not shown) [AGN-203818, 4-(1-(2,3-dimethylphenyl)ethyl)-1H-imidazole-2(3H)-thione]
C57B/6 male mice [1]; time post-amphetamine 0 min
  AMBULATIONS: 7337 ± 890.0
  FINE MOVEMENTS: 762.2 ± 89.4^⋄
C57B/6 male mice [1]; time post-amphetamine 15 min
  AMBULATIONS: 5747.3 ± 874.4
  FINE MOVEMENTS: 1066.5 ± 37.8^⋄
C57B/6 male mice [1]; time post-amphetamine 30 min
  AMBULATIONS: 7201.2 ± 1669.4
  FINE MOVEMENTS: 1297.8 ± 85.3^⋄
C57B/6 male mice [1]; administered PO
  oral activity (in words): orally active
C57B/6 male mice [1]; high-dose psychostimulant administration, listed as compound of the invention
  effect on amphetamine-induced stereotypy (in words): effectively inhibit stereotypy; also recorded: selectively decreased amphetamine-induced stereotypy
Male Sprague-Dawley rats; Compound 0.01 mg/kg as Drug 1, Drug 2 PCP (2 mg/kg, s.c.), pre-pulse 3 dB
  % PPI PP3: 20.3 ± 10.6%
Male Sprague-Dawley rats; Compound 0.01 mg/kg as Drug 1, Drug 2 PCP (2 mg/kg, s.c.), pre-pulse 6 dB
  % PPI PP6: 21.6 ± 10.7%
Male Sprague-Dawley rats; Compound 0.01 mg/kg as Drug 1, Drug 2 PCP (2 mg/kg, s.c.), pre-pulse 12 dB
  % PPI PP12: 51.8 ± 5.6%
Male Sprague-Dawley rats; Compound 0.03 mg/kg as Drug 1, Drug 2 PCP (2 mg/kg, s.c.), pre-pulse 3 dB
  % PPI PP3: 30.9 ± 7.4%
Male Sprague-Dawley rats; Compound 0.03 mg/kg as Drug 1, Drug 2 PCP (2 mg/kg, s.c.), pre-pulse 6 dB
  % PPI PP6: 46.2 ± 4.2%^⋄
Male Sprague-Dawley rats; Compound 0.03 mg/kg as Drug 1, Drug 2 PCP (2 mg/kg, s.c.), pre-pulse 12 dB
  % PPI PP12: 53.6 ± 4.2%
Male Sprague-Dawley rats; Compound 0.1 mg/kg as Drug 1, Drug 2 PCP (2 mg/kg, s.c.), pre-pulse 3 dB
  % PPI PP3: 35.8 ± 7.0%
Male Sprague-Dawley rats; Compound 0.1 mg/kg as Drug 1, Drug 2 PCP (2 mg/kg, s.c.), pre-pulse 6 dB
  % PPI PP6: 39.6 ± 10.7%
Male Sprague-Dawley rats; Compound 0.1 mg/kg as Drug 1, Drug 2 PCP (2 mg/kg, s.c.), pre-pulse 12 dB
  % PPI PP12: 56.2 ± 5.6%^⋄
Male Sprague-Dawley rats; Compound 1 mg/kg as Drug 1, Drug 2 Amphetamine (4 mg/kg, s.c.), pre-pulse 3 dB
  % PPI PP3: 49.6 ± 5.8%^⋄
Male Sprague-Dawley rats; Compound 1 mg/kg as Drug 1, Drug 2 Amphetamine (4 mg/kg, s.c.), pre-pulse 6 dB
  % PPI PP6: 52.9 ± 4.3%^⋄
Male Sprague-Dawley rats; Compound 1 mg/kg as Drug 1, Drug 2 Amphetamine (4 mg/kg, s.c.), pre-pulse 12 dB
  % PPI PP12: 65.7 ± 4.7%^⋄
Male Sprague-Dawley rats; Compound 1 mg/kg as Drug 1, Drug 2 PCP (2 mg/kg, s.c.), pre-pulse 3 dB
  % PPI PP3: 48.8 ± 8.2%^⋄
Male Sprague-Dawley rats; Compound 1 mg/kg as Drug 1, Drug 2 PCP (2 mg/kg, s.c.), pre-pulse 6 dB
  % PPI PP6: 45.0 ± 12.7%
Male Sprague-Dawley rats; Compound as Drug 1 (dose not given), Drug 2 Vehicle, pre-pulse 3 dB
  % PPI PP3: 60.4 ± 4.8%^⋄
Male Sprague-Dawley rats; Compound as Drug 1 (dose not given), Drug 2 Vehicle, pre-pulse 6 dB
  % PPI PP6: 59.8 ± 2.2%^⋄
Male Sprague-Dawley rats; Compound as Drug 1 (dose not given), Drug 2 Vehicle, pre-pulse 12 dB
  % PPI PP12: 75.5 ± 2.9%^⋄*
Male Sprague-Dawley rats; deficits induced by amphetamine or phencyclidine
  effect on PPI deficits induced by amphetamine or phencyclidine (in words): significantly rescue deficits in sensorimotor integration
C57B/6 male mice [2]; ambulations indicative of hyperactivity
  AMBULATIONS: 4756.3 ± 1208.8
C57B/6 male mice [2]; scored 60 min post-amphetamine, fine movements indicative of stereotypy
  FINE MOVEMENTS: 904.5 ± 107.0^⋄

## Clc1cccc(Cl)c1N=C1NCCN1 [Clonidine, reference compound]
Male Sprague-Dawley rats; Clonidine 30 ug/kg as Drug 1, Drug 2 Amphetamine (4 mg/kg, s.c.), pre-pulse 3 dB
  % PPI PP3: 31.0 ± 6.9%
Male Sprague-Dawley rats; Clonidine 30 ug/kg as Drug 1, Drug 2 Amphetamine (4 mg/kg, s.c.), pre-pulse 6 dB
  % PPI PP6: 40.7 ± 6.0%
Male Sprague-Dawley rats; Clonidine 30 ug/kg as Drug 1, Drug 2 Amphetamine (4 mg/kg, s.c.), pre-pulse 12 dB
  % PPI PP12: 53.5 ± 5.2%
Male Sprague-Dawley rats; Clonidine 30 ug/kg as Drug 1, Drug 2 PCP (2 mg/kg, s.c.), pre-pulse 3 dB
  % PPI PP3: 34.5 ± 8.2%
Male Sprague-Dawley rats; Clonidine 30 ug/kg as Drug 1, Drug 2 PCP (2 mg/kg, s.c.), pre-pulse 6 dB
  % PPI PP6: 55.1 ± 9.8%
Male Sprague-Dawley rats; Clonidine 30 ug/kg as Drug 1, Drug 2 PCP (2 mg/kg, s.c.), pre-pulse 12 dB
  % PPI PP12: 63.7 ± 7.4%
Male Sprague-Dawley rats; Clonidine 30 ug/kg as Drug 1, Drug 2 Vehicle, pre-pulse 3 dB above background
  % PPI PP3: 35.2 ± 15.7%
Male Sprague-Dawley rats; Clonidine 30 ug/kg as Drug 1, Drug 2 Vehicle, pre-pulse 6 dB above background
  % PPI PP6: 60.8 ± 3.0%^⋄
Male Sprague-Dawley rats; Clonidine 30 ug/kg as Drug 1, Drug 2 Vehicle, pre-pulse 12 dB above background
  % PPI PP12: 54.7 ± 8.0%
